Values after ≈ are worked out from the molar mass of the structure shown. Read-outs that look alike come from different tables or passages of the source. Where only a bound is given, the exact number is not on record here.

Results on one molecule are retold here after US10729674B2, “Nanoparticle isoflavone compositions and methods of making and using the same” (Humanetics Corporation, priority 2010, dated 2020).

A short description of data set [1]: Solubility of genistein in vehicles at 25° C. The format is physicochemical. Here is the method: Calculated pka's for genistein range from 7-9, with the predicted solubility increasing above pH 7 in accordance with the lowest pKa. The calculated properties were used to design the appropriate pH range for the pH-solubility profile of genistein in several acceptable cosolvents, which was established to be pH 6-9.
The solubility of genistein in water is not detectable at pH 6-7, which implies the solubility is less than 0.02 mg/mL or ˜0.00002 g/g H2O (lowest concentration), Based on the pH-solubility and solubility in cosolvents, it was determined that PEG400 would be the cosolvent to achieve highest solubility. Since parenteral formulations preferably have a maximum of 50% organic component, the addition of Ethanol (EtOH), Nmethylpyrrolidone (NMP) and a surfactant were considered, since these would be expected to enhance absorption from the injection site. Ethanol has the added benefit of reducing viscosity. […] Solubility was further evaluated in two aqueous/organic mixtures with concentrations acceptable for a parenteral dosage form. Additionally, cyclodextrin formulations were evaluated.

For data set [2] the following is noted: 25° C.; cited from earlier work.

For the molecule `O=c1c(-c2ccc(O)cc2)coc2cc(O)cc(O)c12` [Genistein, 5,7-dihydroxy-3-(4-hydroxyphenyl)-chromen-4-one], the solubility (as a rule, the dissolved amount per volume that the medium holds) turned out to be 6 mg/mL (≈ 22.2 mM) in data set [1] (25 °C, aqueous with cosolvent or surfactant or cyclodextrin, thermodynamic from solid, 30% Hydroxypropyl-β-cyclodextrin, read-out: Solubility of GENISTEIN at 25° C.); 8 mg/mL (≈ 29.6 mM) in data set [1] (25 °C, aqueous with cosolvent or surfactant or cyclodextrin, thermodynamic from solid, 30% Sulfobutylether-β-cyclodextrin, read-out: Solubility of GENISTEIN at 25° C.); 141 mg/mL (≈ 523 mM) in data set [1] (25 °C, organic solvent or mixture, thermodynamic from solid, Dimethyl acetamide (DMA), read-out: Solubility at 25° C.); 25 mg/mL (≈ 92.5 mM) in data set [1] (25 °C, organic solvent or mixture, thermodynamic from solid, Ethanol, read-out: Solubility at 25° C.); 238 mg/mL (≈ 881 mM) in data set [1] (25 °C, organic solvent or mixture, thermodynamic from solid, N-methyl pyrrolidone (NMP), read-out: Solubility at 25° C.); 110 mg/mL (≈ 409 mM) in data set [1] (25 °C, organic solvent or mixture, thermodynamic from solid, Polyethylene Glycol 300 (PEG300), read-out: Solubility at 25° C.). For the same molecule, the solubility is 115 mg/mL (≈ 426 mM) in data set [1] (25 °C, organic solvent or mixture, thermodynamic from solid, Polyethylene Glycol 400 (PEG400), read-out: Solubility at 25° C.); 6.2 mg/mL (≈ 22.9 mM) in data set [1] (25 °C, organic solvent or mixture, thermodynamic from solid, Propylene Glycol, read-out: Solubility at 25° C.); less than 0.02 mg/mL in data set [1] (25 °C, pH 6, aqueous buffer, thermodynamic from solid, pH 6-7, not detectable, lowest concentration, read-out: solubility in water); 12 mg/mL (≈ 44.4 mM) in data set [1] (25 °C, pH 7, aqueous with cosolvent or surfactant or cyclodextrin, thermodynamic from solid, 10% Polysorbate 80/10% EtOH/40% PEG400/40% 25 mM Phosphate Buffered Saline (pH 7), read-out: Solubility of GENISTEIN at 25° C.); 19 mg/mL (≈ 70.3 mM) in data set [1] (25 °C, pH 7, aqueous with cosolvent or surfactant or cyclodextrin, thermodynamic from solid, 10% Polysorbate 80/10% NMP/40% PEG400/40% 25 mM Phosphate Buffered Saline (pH 7), read-out: Solubility of GENISTEIN at 25° C.); 11 mg/mL (≈ 40.7 mM) in data set [1] (25 °C, pH 7, aqueous with cosolvent or surfactant or cyclodextrin, thermodynamic from solid, 10% Polysorbate 80/40% PEG400/50% 25 mM Phosphate Buffered Saline (pH 7), read-out: Solubility of GENISTEIN at 25° C.). The molecule further came in with a solubility at 7 days in data set [1] (25 °C, pH 9, aqueous buffer, thermodynamic from solid, Borate buffer pH 9, 7 days) of 0.043 mg/mL (≈ 0.159 mM). The molecule further registered a solubility at 14 days in data set [1] (25 °C, pH 9, aqueous buffer, thermodynamic from solid, Borate buffer pH 9, 14 days) of 0.005 mg/mL (≈ 0.0185 mM). For the same molecule, the “Solubility at 25° C.” value in data set [1] (Borate buffer pH 9, 3 days) was “Not detected”; in data set [1] (Citrate buffer pH 6), “Not detected”; in data set [1] (Phosphate buffer pH 7), “Not detected”; in data set [1] (TRIS buffer pH 8) it was “Not detected”. In data set [1] (pH 6-7, not detectable, lowest concentration), this molecule had a solubility in water of less than 0.00002 g/g H2O. In addition, the “stability in pH-solubility profile” value in data set [1] (pH 9) was “degradation was observed”. In addition, in data set [2], the “parts water required to dissolve one part genistein” value is “greater than 50,000 parts water”.
